In publication PMC8211267, “Potent PDE4 inhibitor activates AMPK and Sirt1 to induce mitochondrial biogenesis” (PLoS ONE, 2021):

Biological target: PDE4D (Homo sapiens, UniProt Q08499)
Experiment: recombinant PDE4 activity assay, [3H]cAMP hydrolysis, dose-response
Format: biochemical

PDE4D, sequence (Q08499 whole entry): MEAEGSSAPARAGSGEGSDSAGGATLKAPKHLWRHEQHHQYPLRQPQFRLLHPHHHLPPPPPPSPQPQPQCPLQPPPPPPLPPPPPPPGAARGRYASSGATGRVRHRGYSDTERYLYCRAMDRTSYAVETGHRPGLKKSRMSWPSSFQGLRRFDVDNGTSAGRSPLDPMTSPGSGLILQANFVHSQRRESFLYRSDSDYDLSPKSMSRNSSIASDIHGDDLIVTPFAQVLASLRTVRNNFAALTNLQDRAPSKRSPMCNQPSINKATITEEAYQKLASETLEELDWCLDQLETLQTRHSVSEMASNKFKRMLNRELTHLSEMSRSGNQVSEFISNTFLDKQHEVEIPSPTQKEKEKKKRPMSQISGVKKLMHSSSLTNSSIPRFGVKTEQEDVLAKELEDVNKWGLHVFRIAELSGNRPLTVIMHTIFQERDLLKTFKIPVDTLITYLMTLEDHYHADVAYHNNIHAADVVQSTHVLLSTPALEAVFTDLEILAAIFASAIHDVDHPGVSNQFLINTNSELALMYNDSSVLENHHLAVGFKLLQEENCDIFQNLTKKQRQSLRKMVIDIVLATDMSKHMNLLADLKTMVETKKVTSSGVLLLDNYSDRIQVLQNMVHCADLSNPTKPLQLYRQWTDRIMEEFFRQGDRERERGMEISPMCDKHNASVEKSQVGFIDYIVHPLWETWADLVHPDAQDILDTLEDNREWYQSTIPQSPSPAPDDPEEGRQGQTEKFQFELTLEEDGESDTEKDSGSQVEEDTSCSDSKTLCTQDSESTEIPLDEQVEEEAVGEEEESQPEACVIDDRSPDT

- IC50: ~450 nM
SMILES: COc1ccc(C(=O)Nc2ccccc2C)cc1OC [CBU91, 3,4-dimethoxy-N-(o-tolyl)benzamide]
